Measured values taken from paper PMC9915956, “Identification of Potent Zika Virus NS5 RNA-Dependent RNA Polymerase Inhibitors Combining Virtual Screening and Biological Assays” (International Journal of Molecular Sciences, 2023).
pEC50, pIC50: −log10 of the molar value. Like-named read-outs stand apart in the source and are kept apart here. One block for each molecule: values may come before it.

Experiments:
ZIKV NS5 RdRp [1] = target: T1, ZIKV NS5 RdRp (Zika virus, UniProt A0A024B7W1); test: SPR binding to immobilized RdRp; details: CM5 chip, 3.125–50 μM
T1 sequence (A0A024B7W1 2786-3423): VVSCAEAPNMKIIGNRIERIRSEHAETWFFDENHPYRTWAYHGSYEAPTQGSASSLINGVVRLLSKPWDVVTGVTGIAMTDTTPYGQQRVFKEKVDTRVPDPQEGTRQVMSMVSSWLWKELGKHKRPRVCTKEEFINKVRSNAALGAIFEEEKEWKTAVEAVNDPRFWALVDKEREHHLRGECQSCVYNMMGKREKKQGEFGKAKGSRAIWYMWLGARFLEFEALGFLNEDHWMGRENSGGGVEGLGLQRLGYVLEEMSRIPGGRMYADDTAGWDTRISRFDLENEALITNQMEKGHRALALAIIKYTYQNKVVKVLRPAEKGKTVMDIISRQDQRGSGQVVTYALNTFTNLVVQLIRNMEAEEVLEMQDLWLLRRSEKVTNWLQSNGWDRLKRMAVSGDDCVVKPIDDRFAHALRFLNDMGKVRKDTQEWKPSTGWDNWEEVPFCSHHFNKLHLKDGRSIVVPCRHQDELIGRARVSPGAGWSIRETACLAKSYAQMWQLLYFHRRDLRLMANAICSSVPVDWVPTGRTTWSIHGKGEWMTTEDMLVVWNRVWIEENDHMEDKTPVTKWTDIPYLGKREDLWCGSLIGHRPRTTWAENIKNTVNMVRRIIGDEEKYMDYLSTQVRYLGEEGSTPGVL
Procedure: Thus, SPR assays were carried out. RdRp protein was immobilized on a CM5 sensor chip through amine coupling.
The SPR was carried out using BIAcore T200 (GE Healthcare, Uppsala, Sweden) at 25 °C. RdRp was diluted by 10 mM sodium acetate (pH 4.5) and then immobilized on a CM5 sensor chip using an NHS/EDC amine-coupling kit in 1× PBS-P running buffer. Different concentrations (3.125–50 μM) of compounds flowed through the sensor chip surface and the RUs was detected. The equilibrium dissociation constant (KD) was fitted using the BIAcore Evaluation Software.

ZIKV NS5 RdRp [2] = target: T1, ZIKV NS5 RdRp; test: Fluorescence-based alkaline phosphatase-coupled polymerase assay, RdRp enzymatic inhibition; format: biochemical; details: compounds incubated with RdRp for 30 min; WT-RdRp; read-out: IC50 to inhibit RdRp activity
Procedure: The activity of RdRp was measured by a fluorescence-based alkaline phosphatase-coupled polymerase assay established previously in our lab. Briefly, RdRp catalyzed the transfer of adenosine 5′-monophosphate from γ-(BBT)-ATP to the RNA chain, generating the byproduct BBTppi. Subsequently, BBTppi was hydrolyzed by alkaline phosphatase to fluorescent BBT (ex/em 430/560 nm).
The plasmid pET30a-RdRp, constructed in our laboratory, was transformed into E. coli Transetta (DE3) for RdRp expression and purified. The bacteria were grown in ZYM-5052 culture medium. RdRp with the His tag was loaded on a Ni^2+ HisTrap chelating column and then eluted in a buffer containing imidazole in the ÄKTA system. The purified proteins were verified by SDS-PAGE and Western blotting. RdRp activity was analyzed using a fluorescence-based alkaline phosphatase-coupled polymerase assay. The inhibitory effect of the compounds against RdRp was evaluated using the protocol developed in our laboratory.

in vitro = details: human
Procedure: (§1) The WST-8 assay was used to evaluate the cytotoxicity of the compounds. Huh-7 cells (1 × 10^4 cells/well) were seeded in a 96-well plate and different concentrations of compounds were added the next day. After a 24 h incubation, the supernatant was discarded and WST-8 reagent (1:10 diluted by DMEM) was added. The cell viability was assessed using a Microplate Reader (ELx808, Biotek, North Chesterfield, VA, USA) at 450 nm.

Huh-7 cells [3] = system: Huh-7 cells; parameters: method as in PMID 19760134; details: ≤ 10 μM; cited from earlier work
ZIKV (SMGC-1) = test: Anti-ZIKV activity by FACS of ZIKV E protein-positive cells; format: cell-based; details: Zika virus, read-out: EC50 anti-ZIKV activity (reduction of ZIKV E protein-positive cells)
Procedure: Huh-7 cells were infected with ZIKV (SMGC-1) and incubated with different concentrations of compounds. After 48 h, the cells were fixed and permeabilized, followed by staining with the FITC-anti-ZIKV E protein antibody. When detected by FACS, the FITC intensity in the given cell population reflected the ZIKV E protein-positive cells, indicting the cells infected with ZIKV.
Huh-7 cells were seeded into 24-well plates and infected with ZIKV (SMGC-1) at a multiplicity of infection (MOI) of 0.2. […] Chloroquine was used as a positive control. Cells were fixed and permeabilized for 20 min using a Fixation/Permeabilization Solution Kit. After washing, the cells were incubated with FITC-anti-ZIKV E protein antibody for 30 min. Then, ZIKV E protein-positive cells were detected in a FACS Analyzer and analyzed by FlowJo (TreeStar, Ashland, OR, USA). The EC50s of the compounds were calculated as the reduction ratio of ZIKV E protein-positive cells over the concentrations of the compounds.

Huh-7 cells [4] = test: WST-8 cell viability (cytotoxicity) assay; details: Huh-7 cells
Procedure: as §1

dengue virus = details: by targeting OSBP; read-out: EC50 dengue virus replication; cited from earlier work
[5] = system: ZIKV sub-genomic replicon RNA; details: Hela cells, single concentration of 10 μM; cited from earlier work

Compound: CCC(C)n1ncn(-c2ccc(N3CCN(c4ccc(OCC5COC(Cn6cncn6)(c6ccc(Cl)cc6Cl)O5)cc4)CC3)cc2)c1=O (stereo not shown) [ITR, Itraconazole]
Binding to RdRp by SPR (in words) (ZIKV NS5 RdRp [1]): almost no binding signals
pIC50 (ZIKV NS5 RdRp [2]): 5.74
CC50 at 24 h (in vitro): > 100 µM

pEC50 (ZIKV (SMGC-1); Huh-7, 48 h): 5.55
Compound: CCN(CC)CCCC(C)Nc1ccnc2cc(Cl)ccc12 (stereo not shown) [chloroquine, Chloroquine]
Cytotoxicity to Huh-7 cells (in words) (Huh-7 cells [3]): no significant cytotoxicity

Compound: Cc1cc2c(C(C)C)c(O)c(O)c(C=O)c2c(O)c1-c1c(C)cc2c(C(C)C)c(O)c(O)c(C=O)c2c1O [GOS, Gossypol (acetic acid)]
Cytotoxicity (in words) at 5 μM (Huh-7 cells [4]; WST-8, concentration of 5 μM): obvious cell toxicity
CC50 at 24 h (in vitro): 7.79 µM

Compound: CC[C@@H]([C@H](C)O)n1ncn(-c2ccc(N3CCN(c4ccc(OC[C@@H]5CO[C@@](Cn6cncn6)(c6ccc(F)cc6F)C5)cc4)CC3)cc2)c1=O [POS, Posaconazole]
pEC50 (dengue virus): 5.39
pEC50 (ZIKV (SMGC-1); Huh-7 cells, ZIKV (SMGC-1) MOI 0.2, 48 h, FACS): 6.23
Cytotoxicity (in words) at concentrations used in the anti-ZIKV assay (Huh-7 cells [4]; WST-8, 24 h, ≤ 6.4 μM): low
CC50 at 24 h (in vitro; Huh-7 cells): 101 µM
Effect on replication of ZIKV sub-genomic replicon RNA (in words) [5]: inhibit the replication

Compound: CCCCCCOC(=O)NC(=N)c1ccc(NCc2nc3cc(C(=O)N(CCC(=O)OCC)c4ccccn4)ccc3n2C)cc1 [DAB, Dabigatran etexilate]
pIC50 (ZIKV NS5 RdRp [2]): 4.95
